Measurements taken from ChEMBL document CHEMBL4270500, “From the hive: Honey, a novel weapon against cancer” (Eur J Med Chem, 2017).

Key:
[1] = Cytotoxicity in human M17 cells assessed as reduction in cell viability incubated for 48 hrs by MTT assay; assay type: functional, cell-based
[2] = Cytotoxicity in human SP6.5 cells assessed as reduction in cell viability incubated for 48 hrs by MTT assay; assay type: functional, cell-based
KYSE-510 = test: Cytotoxicity in human KYSE-510 cells assessed as reduction in cell viability incubated for 24 to 72 hrs by MTT assay; assay type: functional, cell-based
HeLa = test: Cytotoxicity in human HeLa cells assessed as reduction in cell viability incubated for 24 to 72 hrs by MTT assay; assay type: functional, cell-based
Caco-2 = test: Inhibition of cell proliferation of human Caco2 cells at 1500 umol/L incubated for 1 to 3 days by trypan blue dye based hemocytometry relative to untreated control; assay type: functional
Ehrlich [3] = test: Antitumour activity against mouse EAC implanted in BALB/c mouse assessed as inhibition of tumor growth at 100 mg/kg, ip dosed consecutively from day 1 to 9 relative to untreated control; assay type: functional; settings: 24 h, read-out: TGI
Ehrlich [4] = test: Antitumour activity against mouse EAC implanted in BALB/c mouse assessed as inhibition of solid tumor growth at 100 mg/kg, ip dosed consecutively from day 1 to 9 relative to untreated control; assay type: functional; settings: 24 h, read-out: TGI

O=c1cc(-c2ccccc2)oc2cc(O)cc(O)c12 [CHRYSIN]
IC50 [1]: 35.8 µM | IC50 [2]: 28.3 µM | IC50 (KYSE-510): 63 µM | IC50 (HeLa): 14.2 µM

O=C(O)/C=C/c1ccc(O)cc1 [COUMARIC ACID]
inhibition at 1500 µM (Caco-2): 43 to 75%

C=CCc1ccc(O)c(OC)c1 [EUGENOL]
inhibition in vivo at 100 mg/kg (Ehrlich [3]): 28.9% | inhibition in vivo at 100 mg/kg (Ehrlich [4]): 24.4%
